The results in this text go back to ChEMBL document CHEMBL4840355, “Antitumor and toxicity study of mitochondria-targeted triptolide derivatives using triphenylphosphine (TPP+) as a carrier” (Bioorg Med Chem, 2021).

The subject of data set [1] is L02. Nature of the data set: Cytotoxicity against human HL7702 cells assessed as inhibition of cell proliferation measured after 48 hrs by MTT assay. Particulars: L02, 48 h. The format is cell-based.
For data set [2], the system named is HeLa. Nature of the data set: Cytotoxicity against human HeLa cells assessed as inhibition of cell proliferation measured after 48 hrs by MTT assay. It is filed as functional, cell-based. (In general: Formazan colour is commonly taken as a measure of viable cells.)
Data set [3] in a line: Cytotoxicity against human A549/DDP cells assessed as inhibition of cell proliferation measured after 48 hrs by MTT assay. It is filed as functional, cell-based.
Data set [4] has as its system HepG2. Nature of the data set: Induction of apoptosis in human HepG2 cells assessed as live cells at 50 nM measured after 48 hrs by Annexin V-FITC/PI double staining based flow cytometry analysis (Rvb= 94.8%). The format is functional. In general terms: In flow cytometry, cells or beads pass a laser one at a time.
Data set [5] deals with HepG2. Nature of the data set: Induction of apoptosis in human HepG2 cells assessed as late apoptotic cells at 50 nM measured after 48 hrs by Annexin V-FITC/PI double staining based flow cytometry analysis (Rvb= 2.89%). It is filed as functional.
Data set [6] deals with HepG2. The data set is described as follows: Induction of apoptosis in human HepG2 cells assessed as live cells at 75 nM measured after 48 hrs by Annexin V-FITC/PI double staining based flow cytometry analysis (Rvb= 94.8%). The format is functional.
The subject of data set [7] is HepG2. Nature of the data set: Induction of apoptosis in human HepG2 cells assessed as early apoptotic cells at 75 nM measured after 48 hrs by Annexin V-FITC/PI double staining based flow cytometry analysis (Rvb= 2.16%). It is filed as functional.
For data set [8], the system named is HepG2. The data set is described as follows: Induction of apoptosis in human HepG2 cells assessed as necrotic cells at 75 nM measured after 48 hrs by Annexin V-FITC/PI double staining based flow cytometry analysis (Rvb= 0.13%). The format is functional.
In data set [9] the test system is HepG2. Nature of the data set: Induction of apoptosis in human HepG2 cells assessed as late apoptotic cells at 100 nM measured after 48 hrs by Annexin V-FITC/PI double staining based flow cytometry analysis (Rvb= 2.89%). The format is functional.
The subject of data set [10] is HepG2. The data set is described as follows: Induction of apoptosis in human HepG2 cells assessed as early apoptotic cells at 150 nM measured after 48 hrs by Annexin V-FITC/PI double staining based flow cytometry analysis (Rvb= 2.16%). It is filed as functional.
Data set [11] is described as follows: Drug uptake in mitochondria of human HepG2 cells at 10 uM incubated for 7 hrs by RP-HPLC method relative to TP. Particulars: hepg2, 7 h. The format is ADME.
Data set [12] has as its system HepG2. Nature of the data set: Induction of mitochondrial membrane potential loss in human HepG2 cells assessed as proportion of cells with depolarized mitochondria at 50 nM measured after 48 hrs by JC-1 staining based flow cytometry analysis (Rvb= 9.1%). It is filed as functional.
Data set [13] relates to HepG2. The data set is described as follows: Induction of mitochondrial membrane potential loss in human HepG2 cells assessed as proportion of cells with hyperpolarized mitochondria at 100 nM measured after 48 hrs by JC-1 staining based flow cytometry analysis (Rvb= 80.9%). It is filed as functional.
The test system of data set [14] is HepG2. Nature of the data set: Induction of mitochondrial membrane potential loss in human HepG2 cells assessed as proportion of cells with depolarized mitochondria at 100 nM measured after 48 hrs by JC-1 staining based flow cytometry analysis (Rvb= 9.1%). It is filed as functional.
In data set [15] the test system is HepG2. Nature of the data set: Induction of mitochondrial membrane potential loss in human HepG2 cells assessed as proportion of cells with hyperpolarized mitochondria at 150 nM measured after 48 hrs by JC-1 staining based flow cytometry analysis (Rvb= 80.9%). The format is functional.
Data set [16] concerns HepG2. Nature of the data set: Induction of cell cycle arrest in human HepG2 cells assessed as accumulation of cells in G0/G1 phase at 50 nM measured after 48 hrs by RNase A/PI staining based flow cytometry analysis (Rvb= 56.42+/- 0.27%). The format is functional.

Usually IC50 stands for the point on the concentration scale where inhibition reaches its midpoint.

Turning to `CC(C)[C@]12O[C@H]1[C@@H]1O[C@]13[C@]1(O[C@H]1C[C@H]1C4=C(CC[C@@]13C)C(=O)OC4)[C@@H]2OC(=O)CCCCC[P+](c1ccccc1)(c1ccccc1)c1ccccc1.[Br-]`, the IC50 was 334 nM in data set [1], 325 nM in [2] and > 10000 nM in [3]. Further, the Activity in data set [4] is recorded as 91.2%; in data set [5], 1.23%; in [6], 76.8%; in data set [7] it was 15.5%; in data set [8], 0.17%; in [9] it was 12.1%. For the same compound, the Activity came out at 33.7% in [10]; 25.3% in data set [12]; 54.4% in data set [13]; 45.6% in [14]; 51.1% in data set [15]; 72.22% in data set [16]. In addition, the “fold change (FC)” value in [11] was 3.
